How the values were obtained:
[1] = tested on: HepG2 cells derived from human liver cancer; assay: EPO production in HepG2 cells (EPO ELISA of culture supernatant); type: cell-based; details: Homo sapiens, HepG2; 3 μM test compound, 48 hrs, 4% oxygen; non-stimulated state without compound = 100%; read-out: amount of EPO production, % of control (3 μM)
Description: HepG2 cells derived from human liver cancer were inoculated in an amount of 5×10^4 cells per well on a 48-well plate, using minimum essential medium (MEM, Sigma-Aldrich Company) containing 10% bovine fetal serum. On the next day, the medium was exchanged with Dulbecco's modified eagle medium (DMEM (Sigma-Aldrich Company)) containing 10% bovine fetal serum without Phenol Red. Then, a test compound dissolved in DMSO was added thereto to obtain a final concentration of 3 μM or 10 μM, and the amount of medium was adjusted to 400 μL per well. The cells were incubated for 48 hrs in a CO2 incubator in which the oxygen concentration was adjusted to 4%, and then the culture supernatant was collected. The EPO concentration in the culture supernatant was immediately measured using an EPO ELISA kit (Roche Diagnostics GmbH). The method was carried out according to the operation manual.
The amount of EPO production in a non-stimulated state where no compounds were added, was designated as 100%, and the amount of EPO production (% of control) induced by each of the compounds was determined.

[2] = tested on: K562 cells, a human proerythroblast cell line; assay: Hemoglobin production in K562 cells (fluorescence of the porphyrin ring); type: cell-based; details: Homo sapiens, K562, 144 h; 6 μM test compound, 3 + 3 days incubation; non-stimulated state without compound = 100; read-out: amount of hemoglobin, % of control (6 μM)
Description: K562 cells (obtained from ATCC), which is a human proerythroblast cell line, were inoculated at a concentration of 1×10^5 cells/1 mL in each well of a 24-well plate, using complete medium (RPMI-1640 medium containing 10% bovine fetal serum), and 1 μL of a test compound at a 1000-fold concentration was added to each well. Subsequently, the cells were incubated for 3 days in a CO2 incubator (37° C., 5% CO2). The medium was exchanged, and the cells were further incubated for 3 days. The cells were collected and counted. Subsequently, the amount of hemoglobin produced in the cells was determined by adjusting the number of cells to 3×10^5 cells, and measuring the fluorescence of the porphyrin ring. That is, the cells collected by centrifugation were suspended in 500 μL of 2 M oxalic acid, and were heated to boil for 30 minutes. The cells were cooled, and then the fluorescence intensity was measured by using a fluorescence microplate reader (Spectra MAX GeminiEM; Molecular Devices Corp.) ([…]). The amount of hemoglobin in a non-stimulated state where no compound was added was designated as 100-, and the amount of hemoglobin (% of control) produced as induced by each of the compounds was determined.

SMILES | activity at 3 µM [1] | activity at 6 µM [2]
CC(=O)N1c2ccc(-c3n[nH]c(=O)o3)cc2C(Nc2ccc(N3CCOCC3)cc2)CC1C (centres unmarked) [Compound 134, 1-Acetyl-4-[(4-morpholinophenyl)-amino]-2-methyl-6-[1,3,4-oxadiazol-2(3H)-on-5-yl]-1,2,3,4-tetrahydroquinoline] | 157% | 298%
CC(=O)N1c2ccc(C(=O)NCCO)cc2C(Nc2ccc(Cl)cc2)CC1C (centres unmarked) [Compound 126, 1-Acetyl-4-[(4-chlorophenyl)-amino]-N-(2-hydroxyethyl)-2-methyl-1,2,3,4-tetrahydroquinoline-6-carboxamide] | 161% | 124%
CC(=O)N1c2ccc(C(=O)NC(C)C)cc2C(Nc2ccc(N3CCOCC3)cc2)CC1C (centres unmarked) [Compound 176, 1-Acetyl-N-isopropyl-2-methyl-4-[(4-morpholinophenyl)-amino]-1,2,3,4-tetrahydroquinoline-6-carboxamide] | 325% | 355%
CCOC(=O)c1ccc2c(c1)C(Nc1ccc(-c3cnns3)cc1)CC(C)N2C(C)=O (centres unmarked) [Compound 171, Ethyl 1-Acetyl-2-methyl-4-{[4-(1,2,3-thiadiazol-5-yl)-phenyl]amino}-1,2,3,4-tetrahydroquinoline-6-carboxylate] | 333% | 243%
CC(=O)N1c2ccc(C(=O)O)cc2C(Nc2ccc(-c3cnns3)cc2)CC1C (centres unmarked) [Compound 172, 1-Acetyl-2-methyl-4-{[4-(1,2,3-thiadiazol-5-yl)-phenyl]amino}-1,2,3,4-tetrahydroquinoline-6-carboxylic acid] | 152% | 168%
COC(=O)CCCc1ccc(NC(=O)c2ccc3c(c2)C(Nc2ccc(N4CCOCC4)cc2)CC(C)N3C(C)=O)cc1 (centres unmarked) [Compound 151, Methyl 4-(4-{1-Acetyl-2-methyl-4-[(4-morpholinophenyl)-amino]-1,2,3,4-tetrahydroquinoline-6-carboxamido}-phenyl)butanoate] | 110% | 341%
CC(=O)N1c2ccc(C(=O)O)cc2C(Nc2ccc(C3CCOCC3)cc2)CC1C (centres unmarked) [Compound 154, 1-Acetyl-2-methyl-4-{[4-(tetrahydro-2H-pyran-4-yl)-phenyl]amino}-1,2,3,4-tetrahydroquinoline-6-carboxylic acid] | 116% | 320%
CC(=O)N1c2ccc(C(=O)NO)cc2C(Nc2ccc(Cl)cc2)CC1C (centres unmarked) [Compound 129, 1-Acetyl-4-[(4-chlorophenyl)-amino]-N-hydroxy-2-methyl-1,2,3,4-tetrahydroquinoline-6-carboxamide] | 125% | 136%
CNC(=O)c1ccc2c(c1)C(Oc1ccc(N3CCOCC3)cc1)CC(C)N2C(C)=O (centres unmarked) [Compound 140, 1-Acetyl-N,2-dimethyl-4-(4-morpholinophenoxy)-1,2,3,4-tetrahydroquinoline-6-carboxamide] | 124% | 231%
CNC(=O)c1ccc2c(c1)C(Nc1ccc(N3CCOCC3)cc1)CC(C)N2C(C)=O (centres unmarked) [Compound 132, 1-Acetyl-4-[(4-morpholinophenyl)-amino]-N,2-dimethyl-1,2,3,4-tetrahydroquinoline-6-carboxamide] | 208% | 198%

From US9045423B2, “Prophylactic and/or therapeutic agent for anemia comprising tetrahydroquinoline compound as active ingredient” (KOWA COMPANY, LTD., priority 2009, dated 2015)
